Test results reported in US8242110B2, “Use of antihistamine agents for the preventive or early treatment of inflammatory syndromes, in particular those triggered by togaviruses” (Pierre Fabre Medicament, priority 2006, dated 2012).

Tested on: Chikungunya virus
Experiment: Observational study of mequitazine in preventive and early treatment of inflammatory syndromes caused by the Chikungunya virus
Format: in vivo
Conditions: patients
Method: Effect of Mequitazine on the Preventive and Early Treatment of Inflammatory Syndromes Caused by the Chikungunya Virus—Results of an Observational Study
104 patients were included in this observational study involving a limited number of doctors held secret: mean age 39.6 years, 61.9% female.
At the time of inclusion at D0, the patients were slightly feverish with a mean temperature of 38.4° C.
The patients consulted after various periods following the onset of hyperthermia, but generally 1.1 days after this onset, the phase preceding the onset of arthralgia.
During this first visit, the most painful joints were the fingers, wrists and ankles.
At this first visit on D0, the doctors gave mequitazine to the patients, possibly in combination with an anti-inflammatory.
A questionnaire was handed to each patient and completed with the patient.
This questionnaire included the content of 2 conventional questionnaires: • HAQ* questionnaire (Health Assessment Questionnaire) to assess the functional capacity of patients (function index) i.e. the handicap generated by the pathology; • A SF12** questionnaire to assess the quality of life of the patient using the SF12 score.
At D7 and D14 the patient again filled in these questionnaires.
At D28, at the time of a further consultation, these questionnaires were again updated. • HAQ: Bruce B and Fries J. The Stanford Health Assessment Questionnaire (HAQ): A review of its history, issues, progress and documentation. J. Rheumatol. 2003; 30(1):167-78. • SF12: Ware J Jr, Kosinski M, Keller S D. A 12-item Short-Form Health Survey: construction of scales and preliminary tests of reliability and validity. Med. Care 1996; 34:220-33.

Compound: c1ccc2c(c1)Sc1ccccc1N2CC1CN2CCC1CC2 (centres unmarked) [mequitazine]
- handicap generated by the pathology (HAQ function index) (at D14, mequitazine given at D0): statistically significant improvement
- handicap generated by the pathology (HAQ function index) (at D28, mequitazine given at D0): statistically significant improvement
- number of painful joints (between D0 and D7, decrease continuing in time): significant decrease
- influence of combining an anti-inflammatory with mequitazine on the SF12 physical score measuring quality of life (mequitazine combined with an anti-inflammatory): does not have an influence
- physical recovery (SF12 scale and HAQ test) in relation to how early mequitazine is prescribed (the earlier a patient consults and mequitazine is prescribed): the more physical recovery is swift and extensive
